Numbers after ± are expanded uncertainties.
Legend:
[1] = xn = mol fraction of the nth substance listed; settings: 100 kPa, Liquid; for viscosity: Falling or rolling sphere viscometry; for mass density: Vibrating tube method
[2] = 100 kPa, Liquid; for viscosity: Falling or rolling sphere viscometry; for mass density: Vibrating tube method

C1CC[C@H]2CCCC[C@H]2C1 [cis-decahydronaphthalene] + C1CC[C@H]2CCCC[C@@H]2C1
[1], x1 = 0.5
Settings | mass density [kg/m3] | viscosity [mPa·s]
293.15 K | 880.41 ± 44 | 2.488 ± 0.054
298.15 K | 876.64 ± 44 | 2.255 ± 0.049
303.15 K | 872.86 ± 44 | 2.054 ± 0.044
308.15 K | 869.1 ± 43 | 1.88 ± 0.04
313.15 K | 865.33 ± 43 | 1.727 ± 0.037
318.15 K | 861.56 ± 43 | 1.592 ± 0.034
323.15 K | 857.8 ± 43 | 1.473 ± 0.032
328.15 K | 854.02 ± 43 | 1.367 ± 0.029
333.15 K | 850.25 ± 43 | 1.272 ± 0.027
338.15 K | 846.47 ± 42 | 1.188 ± 0.026
343.15 K | 842.68 ± 42 | 1.111 ± 0.024

CC1CCCCC1 [methylcyclohexane]
[2]
Settings | mass density [kg/m3] | viscosity [mPa·s]
293.15 K | 769.35 ± 1.2 | 0.735 ± 0.016
298.15 K | 765 ± 1.2 | 0.689 ± 0.015
303.15 K | 760.65 ± 1.2 | 0.647 ± 0.014
308.15 K | 756.3 ± 1.2 | 0.611 ± 0.013
313.15 K | 751.93 ± 1.2 | 0.577 ± 0.012
318.15 K | 747.56 ± 1.2 | 0.547 ± 0.012
323.15 K | 743.16 ± 1.2 | 0.519 ± 0.011
328.15 K | 738.74 ± 1.2 | 0.495 ± 0.011
333.15 K | 734.29 ± 1.2 | 0.473 ± 0.01
338.15 K | 729.82 ± 1.2 | 0.453 ± 0.01
343.15 K | 725.32 ± 1.2 | 0.434 ± 0.009

CC1CCCCC1 [methylcyclohexane] + OC1CCCC1
[1], x1 = 1
Settings | mass density [kg/m3] | viscosity [mPa·s]
293.15 K | 769.35 ± 1.2 | 0.735 ± 0.016
298.15 K | 765 ± 1.2 | 0.689 ± 0.015
303.15 K | 760.65 ± 1.2 | 0.647 ± 0.014
308.15 K | 756.3 ± 1.2 | 0.611 ± 0.013
313.15 K | 751.93 ± 1.2 | 0.577 ± 0.012
318.15 K | 747.56 ± 1.2 | 0.547 ± 0.012
323.15 K | 743.16 ± 1.2 | 0.519 ± 0.011
328.15 K | 738.74 ± 1.2 | 0.495 ± 0.011
333.15 K | 734.29 ± 1.2 | 0.473 ± 0.01
338.15 K | 729.82 ± 1.2 | 0.453 ± 0.01
343.15 K | 725.32 ± 1.2 | 0.434 ± 0.009

OC1CCCC1 [cyclopentanol]
[2]
Settings | mass density [kg/m3] | viscosity [mPa·s]
293.15 K | 946.99 ± 1.5 | 11.88 ± 0.25
298.15 K | 943.05 ± 1.5 | 9.722 ± 0.21
303.15 K | 939.05 ± 1.5 | 8.068 ± 0.17
308.15 K | 935.01 ± 1.5 | 7.077 ± 0.15
313.15 K | 930.91 ± 1.5 | 6.04 ± 0.13
318.15 K | 926.75 ± 1.5 | 5.19 ± 0.11
323.15 K | 922.53 ± 1.5 | 4.441 ± 0.095
328.15 K | 918.24 ± 1.5 | 3.83 ± 0.082
333.15 K | 913.89 ± 1.5 | 3.312 ± 0.07
338.15 K | 909.48 ± 1.5 | 2.886 ± 0.061
343.15 K | 904.99 ± 1.4 | 2.53 ± 0.054

From the NIST ThermoML archive (doi:10.1021/acs.jced.8b01004)
